Publication PMC10199020 (Nature Communications, 2023)
Several values for one entry are separate records, joined by “and”; a condition that tells them apart may be missing. Equal entries are not always repeated.

Experiments:
[1] = system: STAT3 phosphorylation (Tyr705), IL23R + IL12Rβ1; assay: Phospho-STAT3 AlphaLISA Surefire Ultra assay, wildtype IL23R; type: cell-based, human; conditions: for Individual experimental means, phospho-STAT3 signal (Figure 6 panel b): IL-23 (5nM)
Text: (§1) To test this, we created untagged and NanoLuc tagged versions of IL23R with the C115Y mutation. […] Using an intra-receptor NanoBRET assay to measure the basal association of receptor subunits (as previously described in Lay et al.[24]), we discovered that the […] mutant still associated with a fluorescently labelled HaloTag (HT) tagged IL12Rβ1 construct although this was reduced by 50.1% from the level of association measured for wildtype IL23R, a reduction consistent with the protein’s reduced total and surface expression (Fig. 6e).
Data are mean ± SEM from five or six (untagged) or three (NanoLuc tagged) independent experiments conducted in triplicate. For the IL23R + IL12Rβ1 data set, one outlier (11108.7) was detected using the Grubbs test (with alpha = 0.001) and removed from the statistical analysis. Statistical significance of the C115Y mutation on the alphaLISA data was assessed using a 2-way ANOVA with Tukey’s multiple comparison test. ***p < 0.001. The p value for the comparison of NL tagged construct response was 0.0001 and the p value for the comparison of untagged receptor was 0.951. c Luminescence signal measured when IL12Rβ1 was expressed with either NL-IL23R or the C115Y mutant. Data are mean ± SEM generated from the mean luminescence values of seven (C115Y) or eight independent experiments performed in pentuplicate. d The proportion of luminescence from c that emanated from extracellular protein (as defined by the reduction in luminescence after treatment with 60 μM NanoLuc extracellular inhibitor). Data are mean ± SEM generated from the mean luminescence values of five (C115Y) or six independent experiments performed in triplicate. e The BRET ratio generated from HaloTag-618 labelled cells expressing NL tagged wildtype or C115Y IL23R with HT-IL12Rβ1 or unlabelled IL12Rβ1. […] Statistical significance of differences in mean values shown in c–e were measured using a 2-sided, non-paired t test with ** indicating a p value of <0.005 and *** indicating a p value of <0.0005. […]

[2] = system: STAT3 phosphorylation (Tyr705), C115Y IL23R + IL12Rβ1; assay: Phospho-STAT3 AlphaLISA Surefire Ultra assay, C115Y IL23R; type: cell-based, human; conditions: for Mean, phospho-STAT3 signal (Figure 6 panel b): 5 nM IL-23; for Individual experimental means, phospho-STAT3 signal (Figure 6 panel b): IL-23 (5nM)
Text: as §1
Data are mean ± SEM from five or six (untagged) or three (NanoLuc tagged) independent experiments conducted in triplicate. For the IL23R + IL12Rβ1 data set, one outlier (11108.7) was detected using the Grubbs test (with alpha = 0.001) and removed from the statistical analysis. Statistical significance of the C115Y mutation on the alphaLISA data was assessed using a 2-way ANOVA with Tukey’s multiple comparison test. ***p < 0.001. The p value for the comparison of NL tagged construct response was 0.0001 and the p value for the comparison of untagged receptor was 0.951. c Luminescence signal measured when IL12Rβ1 was expressed with either NL-IL23R or the C115Y mutant. Data are mean ± SEM generated from the mean luminescence values of seven (C115Y) or eight independent experiments performed in pentuplicate. d The proportion of luminescence from c that emanated from extracellular protein (as defined by the reduction in luminescence after treatment with 60 μM NanoLuc extracellular inhibitor). Data are mean ± SEM generated from the mean luminescence values of five (C115Y) or six independent experiments performed in triplicate. e The BRET ratio generated from HaloTag-618 labelled cells expressing NL tagged wildtype or C115Y IL23R with HT-IL12Rβ1 or unlabelled IL12Rβ1. Data are mean ± SEM generated from the mean BRET values of three independent experiments performed in pentuplicate. Statistical significance of differences in mean values shown in c–e were measured using a 2-sided, non-paired t test with ** indicating a p value of <0.005 and *** indicating a p value of <0.0005. The p values for the results shown in c, d and e were p = 0.148, 0.0005 and 0.0013 respectively. Source data are provided as a Source Data file.
Phosphorylation of STAT3 was measured using an AlphaLISA Surefire Ultra assay as previously described. Briefly, transfected HEK293T cells were plated into a poly-D-lysine coated 96 well tissue culture microplate and then incubated overnight. The following day media was replaced with serum free DMEM and the cells incubated for 3 h. […] An AlphaLISA SureFire Ultra assay kit (Perkin Elmer #ALSU-PST3) was then used to measure STAT3 phosphorylation at residue Tyr705. Assays were performed according to the manufacturers’ instructions.

[3] = target: T1, NL-IL23R and IL12Rβ1 (IL-23 receptor) on HEK293T cells (Homo sapiens, UniProt P42701+Q5VWK5); assay: P630-TMR NanoBRET competition assay; type: binding; conditions: Fig. 5a
T1 construct: expressed in transfected cells; host or cells: HEK293T (ATCC CRL-3216), transient transfection
T1 sequence (Q5VWK5 24-629, other chains not shown): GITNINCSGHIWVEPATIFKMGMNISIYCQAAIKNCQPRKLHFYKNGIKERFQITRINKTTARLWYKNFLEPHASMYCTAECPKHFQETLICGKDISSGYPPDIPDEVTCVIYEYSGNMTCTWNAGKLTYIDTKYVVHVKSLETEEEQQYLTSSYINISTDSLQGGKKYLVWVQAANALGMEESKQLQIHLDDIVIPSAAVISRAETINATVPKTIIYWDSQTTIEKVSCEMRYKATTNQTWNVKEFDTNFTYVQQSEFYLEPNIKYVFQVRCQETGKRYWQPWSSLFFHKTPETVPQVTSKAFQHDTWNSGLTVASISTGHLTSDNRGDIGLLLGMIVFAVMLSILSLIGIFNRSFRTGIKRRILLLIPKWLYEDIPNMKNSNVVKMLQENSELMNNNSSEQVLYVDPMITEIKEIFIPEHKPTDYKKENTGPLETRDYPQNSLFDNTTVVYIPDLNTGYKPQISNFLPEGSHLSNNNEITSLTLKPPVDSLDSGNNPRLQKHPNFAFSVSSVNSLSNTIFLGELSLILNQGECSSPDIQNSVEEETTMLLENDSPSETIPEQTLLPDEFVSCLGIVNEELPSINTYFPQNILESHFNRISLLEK
Protocol: (§2) Transient transfections for experiments outlined in Fig. 6 were conducted by seeding 100 μL of 2 × 10^5 cells/ml concentrated HEK293T cells into poly-D-lysine (PDL) coated white 96 well clear bottom assay microplates (Greiner) and incubating overnight. The following day transfection mixes were made up that contained a 4:1 ratio of IL23R to IL12Rβ1 constructs to a total concentration of 100 ng per well with a 0.3 μL per well of FuGENE HD transfection reagent (Promega) in OptiMEM (Gibco). These mixtures were incubated for 10 min before being added to the plate at 5 μL per well. The cells were then incubated overnight to allow expression. For all other experiments 2 mL containing 4 × 10^5 cells were seeded into 6 well plates and incubated 5 h before being transiently transfected with 100 μL per well of a transfection mix containing 2 μg of DNA and 6 μL of FuGENE HD. These cells were then incubated overnight before being re-suspended the following day and seeded into PDL coated white assay microplates at 100 μL containing 3 × 10^4 transfected cells. Cells were then incubated overnight before the experiment. Estimates of total expression levels for the different NL-constructs were made by comparing the luminescence levels achieved to that of a NanoLuciferase standard curve measured under the same conditions (Supplementary Fig. 1).
Media was removed from white 96-well microplates containing transfected cells and replaced with fluoroprobe in the presence or absence of antagonist in 50 μL Hanks Balanced Salt Solution (HBSS) with 1 mg/mL BSA (Merck). After a 1-hour incubation at 37 °C without CO2, 5 μL of HBSS containing 77 μM furimizine was added to each well (final concentration 7 μM), the plate incubated for 5-minutes and the BRET signal measured using a PheraStar FS plate reader (BMG Labtech; data acquisition software version 5.41; MARS analysis software version 3.32) with a 450 ± 30 nm and >550 nm long pass filters.
(§3) Antagonist competition data were fit with the equation:4 Y=Bmin+Bmax−Bmin/1+10^(LogXC50−[A])C Where ‘Bmax’ is the maximum BRET signal, ‘Bmin’ is the minimum BRET signal, ‘LogXC50’ is the log of the 50% inhibiting concentration of antagonist, ‘[A]’ is the concentration of antagonist and ‘C’ is the Hill slope.

[4] = target: T1, NL-IL23R and IL12Rβ1 (IL-23 receptor) on HEK293T cells; assay: IL23-TMR NanoBRET competition assay; type: binding; conditions: 300 pM IL23-TMR
Protocol: Schematic created with Biorender.com. IL23R is shown in orange, IL12Rβ1 in purple, IL23p19 in blue, IL12p40 in green and the presence of a TAMRA fluorophore by a pink star. […] In b and c, data are mean ± SEM from 5 independent experiments conducted in either duplicate or triplicate. Details on absolute number of data points included for each concentration are provided in the associated Source Data file.
as §2
Media was removed from white 96-well microplates containing transfected cells and replaced with fluoroprobe in the presence or absence of antagonist in 50 μL Hanks Balanced Salt Solution (HBSS) with 1 mg/mL BSA (Merck).
as §3

[5] = target: HiBit-IL23R and LgBit-IL12Rβ1 (Homo sapiens, UniProt Q5VWK5); conditions: 10 μM P630
Chain of HiBit-IL23R and LgBit-IL12Rβ1 (Q5VWK5 24-629, other chains not shown): as above
Text: Finally, we utilised a NanoBiT BRET system in which a complemented luciferase with fragments bound to both receptor subunits (Fig. 3) can be used as a BRET donor to measure interactions with binary receptor complexes.
Data in b are mean ± SEM from three independent experiments. In each individual experiment, triplicate determinations were made for total binding and duplicate or triplicate determinations made for non-specific binding. Data in c are the mean values obtained in five independent experiments, each conducted with six replicates. […] Data in d are the mean ± SEM from five (NL-IL23R and NL-23R + IL12Rβ1) or three (HiBit-IL23R + LgBit-IL12Rβ1) independent experiments. Source data are provided as a Source Data file.

IL-23: heterodimeric cytokine, disulphide linked complex of IL12p40 and IL23p19
Mean, phospho-STAT3 signal (Figure 6 panel b) ([1]; 5 nM IL-23, transfection NL-IL23R + IL12Rβ1, N 3): 5562.78
Individual experimental means, phospho-STAT3 signal (Figure 6 panel b) ([1]; transfection IL23R + IL12Rβ1): 2394 and 1760.67 and 1431.33 and 2064.67 and 2014
Individual experimental means, phospho-STAT3 signal (Figure 6 panel b) ([1]; transfection NL-IL23R + IL12Rβ1): 2330.67 and 6586.67 and 7771
Mean, phospho-STAT3 signal (Figure 6 panel b) ([2]; transfection IL23R (C115Y) + IL12Rβ1, N 6): 1388.06
Mean, phospho-STAT3 signal (Figure 6 panel b) ([2]; transfection NL-IL23R (C115Y) + IL12Rβ1, N 3): 1262.44
Individual experimental means, phospho-STAT3 signal (Figure 6 panel b) ([2]; transfection IL23R (C115Y) + IL12Rβ1): 1279.33 and 1494.67 and 1589.67 and 1247.67 and 1140 and 1577
Individual experimental means, phospho-STAT3 signal (Figure 6 panel b) ([2]; transfection NL-IL23R (C115Y) + IL12Rβ1): 760 and 1260.33 and 1767

COc1ccc(C[C@H](NC(=O)[C@H]2NC(=O)[C@H](CCC(N)=O)NC(=O)[C@H](Cc3c[nH]c4ccccc34)NC(=O)[C@H]([C@@H](C)O)NC(=O)[C@H](CC(N)=O)NC(=O)[C@@H](NC(C)=O)C(C)(C)SSC2(C)C)C(=O)N[C@@H](Cc2ccc3ccccc3c2)C(=O)NC(C)(C)C(=O)N[C@@H](CCC(=O)O)C(=O)N[C@@H](CC(N)=O)C(=O)N[C@@H](CC(N)=O)C(N)=O)cc1 [P630]
Displacement of 75 nM P630-TMR (Mean) ([3]; [P630] -4.69897 logM): 100.016
Displacement of 75 nM P630-TMR (Mean) ([3]; [P630] -5.69897 logM): 98.9078
Displacement of 75 nM P630-TMR (Mean) ([3]; [P630] -6.69897 logM): 89.0568
Displacement of 75 nM P630-TMR (Mean) ([3]; [P630] -7.69897 logM): 51.2574
Displacement of 75 nM P630-TMR (Mean) ([3]; [P630] -8.69897 logM): 11.835
Displacement of 75 nM P630-TMR (Mean) ([3]; [P630] -9.69897 logM): -0.3727
Displacement of 75 nM P630-TMR (Mean) ([3]; [P630] -10.699 logM): 3.757
Displacement of 75 nM P630-TMR (Mean) ([3]; [P630] -11.699 logM): 1.217
Inhibition of IL23-TMR binding (Mean) ([4]; [P630] -5.09151 logM): 84.0625
Inhibition of IL23-TMR binding (Mean) ([4]; [P630] -5.56864 logM): 77.8076
Inhibition of IL23-TMR binding (Mean) ([4]; [P630] -6.04576 logM): 62.3503
Inhibition of IL23-TMR binding (Mean) ([4]; [P630] -6.52288 logM): 55.1992
Inhibition of IL23-TMR binding (Mean) ([4]; [P630] -7 logM): 30.8209
Inhibition of IL23-TMR binding (Mean) ([4]; [P630] -7.47712 logM): 11.8559
Inhibition of IL23-TMR binding (Mean) ([4]; [P630] -7.95424 logM): 6.902
Inhibition of IL23-TMR binding (Mean) ([4]; [P630] -8.90849 logM): 4.004
Inhibition of IL23-TMR binding (Mean) ([4]; [P630] -9.38561 logM): -5.834
Inhibition of IL23-TMR binding (Mean) ([4]; [P630] -9.86273 logM): 10.7231
Effect on receptor dimerisation (NanoLuc complementation) [5]: did not affect receptor dimerisation
